# Patent US7671077B2, “Neuroprotective small organic molecules, compositions and uses related thereto” (priority 2004, dated 2010)
# Test system: midbrain dopaminergic neurons
# Experiment: Dopamine (DA) uptake assay in primary midbrain cultures
# Format: cell-based, rat
# Conditions: 20 μM
# Experimental: Primary midbrain cultures were prepared from rat embryo ventral mesencephalon as described previously by Lin et al (1994). In brief, rostral mesencephalic tegmentum of embryonic day 16 rat embryos was collected in DMEM/F12 (Hyclone SH30023.01) containing 2 mM glutamine on ice, The tissue was treated with 0.1% trypsin in Hanks' balanced salt solution (HBSS, Gibco 14175-095) for 15 min at 37° C. and dissociated mechanically by mild trituration with a fire-polished glass pipet in growth medium plus 2% heat-inactivated fetal bovine serum (FBS). The growth medium consisted of equal volumes of Dulbecco's minimal essential medium DMEM (Gibco 12100-046) and HAM's F12 nutrient mixture (Gibco 21700-075) supplemented with 33 mM glucose, 13 mM sodium bicarbonate, 5 mM HEPES, 2 mM glutamine, 25 μg/ml insulin, 100 μg/ml transferrin, 60 μM putrescine, 20 nM progesterone, 30 nM sodium selenite, 5 U/ml penicillin G and 5 μg/ml streptomycin. 24-well tissue culture plate was coated by adding 15 μg/ml poly-1-ornithine hydrobromide solution at 0.5 ml/well, incubated at room temperature for 1 hr. The coating solution was removed and the well washed 3 times with distilled water and one wash with HBSS. The dissociated cells were plated onto polyornithine-coated wells at 250,000-350,000 trypan blue-excluding viable cells per well in 500 μl of above medium containing 1% FBS. After 3 h when most of the cells had adhered to the bottom of the well, the medium was replaced with 500 μl of fresh medium without FBS. A serial dilution of the sample to be assayed for trophic activity was added to each well in duplicate at the time of medium change or within 24 h thereafter. Unless otherwise stated, cultures were incubated at 37° C. without any further medium change up to 7 days. Primary hindbrain cultures were prepared as described for the midbrain cultures except that the rostral raphe region (instead of the rostral mesencephalon) was dissected and trypsinized for 20 (instead of 15) min.
# [^3H]DA uptake was measured in cultures at day 7, and all the solutions were maintained at 37° C. The growth medium was removed, and the cultures were rinsed twice with 0.25 ml of uptake buffer, which consists of HBSS (Gibco 11201-092) supplemented with 28 mM glucose, 15 mM HEPES, 1 mM ascorbic acid (an antioxidant), and […] pargyline (a monoamine oxidase inhibitor). The cultures were then incubated with 0.25 ml of fresh uptake buffer containing 50 nM [^3H]DA (NEN/DuPont) for 20 min at 37° C. [^3H]DA uptake was stopped by removing the incubation mixture, and cells were then washed twice with 0.5 ml of the uptake buffer at room temperature. To release [^3H]DA from the cells, the cultures were lysed with 0.2 ml of 0.1 N NaOH for 1 h at room temperature, the lysate was then added to 1 ml of Microscint-20 (Packard 6013621), and counted for radioactivity in a microplate scintillation counter (Packard TopCount, NXT). Background values were obtained by adding to the uptake buffer 0.5 mM GBR-12909, a specific inhibitor of the high-affinity uptake pump of the dopaminergic neurons, and were usually <5% of the ^3H uptake in untreated control cultures. Forskolin (Fk, 25 μM) was employed as a positive control.
row,SMILES,cytotoxicity in midbrain culture
1,O=C(/C=C/c1ccc(Br)cc1)Nc1ccc(S(=O)(=O)Nc2nc[nH]n2)cc1 [X′],no cytotoxicity
2,O=C(Nc1ccc(S(=O)(=O)Nc2nc[nH]n2)cc1)c1ccc2ccccc2c1 [Y′],no cytotoxicity

# Same assay, conditions: Rattus norvegicus, Neuron, compound concentration 0.3 μM; midbrain culture; read-out: DA uptake % of control
row,SMILES,activity at 0.3 µM
1,O=C(/C=C/c1ccc(Cl)cc1Cl)Nc1ccc(S(=O)(=O)Nc2nccs2)cc1 [V″],250%

# Same assay, conditions: Rattus norvegicus, Neuron, compound concentration 0.6 μM; midbrain culture; read-out: DA uptake % of control
row,SMILES,activity at 0.6 µM
1,O=C(/C=C/c1ccccc1Cl)Nc1ccc(S(=O)(=O)N2CCCCC2)cc1 [M′],145%
2,O=C(Nc1ccc(S(=O)(=O)Nc2nccs2)cc1)c1sc2cc(Cl)ccc2c1Cl [T′],140%
3,CC(C)(C)c1cc(Br)ccc1OCC(=O)Nc1ccc(S(=O)(=O)Nc2nccs2)cc1 [U′],140%
4,O=C(/C=C/c1ccc(Br)cc1)Nc1ccc(S(=O)(=O)Nc2nc[nH]n2)cc1 [X′],290%

# Same assay, conditions: Rattus norvegicus, Neuron, compound concentration 0.7 μM; midbrain culture; read-out: DA uptake % of control
row,SMILES,activity at 0.7 µM
1,O=C(/C=C/c1cccc(Cl)c1)Nc1ccc(S(=O)(=O)Nc2nccs2)cc1 [M],120%

# Same assay, conditions: Rattus norvegicus, Neuron, compound concentration 1.25 μM; midbrain culture; read-out: DA uptake % of control
row,SMILES,activity at 1.25 µM
1,O=C(/C=C/c1cc(F)ccc1C(F)(F)F)Nc1ccc(S(=O)(=O)Nc2nccs2)cc1 [L″],375%
2,O=C(/C=C/c1ccccc1C(F)(F)F)Nc1ccc(S(=O)(=O)Nc2nccs2)cc1 [M″],280%
3,CCCOc1ccc(/C=C/C(=O)Nc2ccc(S(=O)(=O)Nc3nccs3)cc2)cc1OC [P′],210%
4,COc1cccc(/C=C/C(=O)Nc2ccc(S(=O)(=O)Nc3nnc[nH]3)cc2)c1 [R′′′],150%
5,O=C(CCN1C(=O)S/C(=C\c2ccc(Cl)cc2)C1=O)Nc1ccc(S(=O)(=O)Nc2nccs2)cc1 [S′],150%
6,O=C(/C=C/c1c(Cl)cccc1Cl)Nc1ccc(S(=O)(=O)Nc2nccs2)cc1 [U′′′′],290%
7,O=C(/C=C/c1cccc(OC(F)(F)F)c1)Nc1ccc(S(=O)(=O)Nc2nccs2)cc1 [V′′′′],200%
8,O=C(/C=C/c1ccc(F)cc1Cl)Nc1ccc(S(=O)(=O)Nc2nccs2)cc1 [W′′′′],190%
9,O=C(/C=C/c1cc2c(cc1Br)OCO2)Nc1ccc(S(=O)(=O)Nc2nccs2)cc1 [W″],330%
10,Cc1ccccc1/C=C/C(=O)Nc1ccc(S(=O)(=O)Nc2nc[nH]n2)cc1 [X′′′′],260%
11,O=C(/C=C/c1cc(C(F)(F)F)ccc1C(F)(F)F)Nc1ccc(S(=O)(=O)Nc2nccs2)cc1 [X″],245%
12,O=C(Nc1ccc(S(=O)(=O)Nc2nc[nH]n2)cc1)c1ccc2ccccc2c1 [Y′],290%

# Same assay, conditions: Rattus norvegicus, Neuron, compound concentration 1.4 μM; midbrain culture; read-out: DA uptake % of control
row,SMILES,activity at 1.4 µM
1,Cc1ccnc(NS(=O)(=O)c2ccc(NC(=O)/C=C/c3cccc(Cl)c3)cc2)n1 [S],220%

# Same assay, conditions: Rattus norvegicus, Neuron, compound concentration 2.5 μM; midbrain culture; read-out: DA uptake % of control
row,SMILES,activity at 2.5 µM
1,O=C(/C=C/c1cccc(Br)c1)Nc1ccc(S(=O)(=O)Nc2nccs2)cc1 [M′′′′],190%
2,O=C(/C=C/c1ccc(Oc2ccccc2)cc1)Nc1ccc(S(=O)(=O)Nc2nccs2)cc1 [N],170%
3,Cc1ccc(/C=C/C(=O)Nc2ccc(S(=O)(=O)Nc3onc(C)c3C)cc2)cc1 [N′],155%
4,O=C(Nc1ccc(S(=O)(=O)Nc2nccs2)cc1)c1cc2ccccc2s1 [N′′′′],170%
5,Cc1ccc(/C=C/C(=O)Nc2ccc(S(=O)(=O)Nc3nc(C)cc(C)n3)cc2)cc1 [O′],150%
6,O=C(/C=C/c1ccc(Br)cc1)Nc1ccc(S(=O)(=O)Nc2nccs2)cc1 [O″],290%
7,O=C(/C=C/c1ccccc1[N+](=O)[O-])Nc1ccc(S(=O)(=O)Nc2nccs2)cc1 [P′′′′],150%
8,COc1ccc(/C=C/C(=O)Nc2ccc(S(=O)(=O)Nc3cc(C)nc(C)n3)cc2)cc1Br [Q],140%
9,O=C(/C=C/c1ccc(F)cc1C(F)(F)F)Nc1ccc(S(=O)(=O)Nc2nc[nH]n2)cc1 [Q″],270%
10,COc1ccc(/C=C2\SC(=O)N(CCC(=O)Nc3ccc(S(=O)(=O)Nc4nccs4)cc3)C2=O)cc1 [R′],155%
11,CCOc1ccccc1/C=C/C(=O)Nc1ccc(S(=O)(=O)Nc2nccs2)cc1 [R′′′′],170%
12,O=C(/C=C/c1cccc(F)c1)Nc1ccc(S(=O)(=O)Nc2nc[nH]n2)cc1 [S″],280%
13,Cc1ccccc1/C=C/C(=O)Nc1ccc(S(=O)(=O)Nc2nccs2)cc1 [T″],230%
14,O=C(/C=C/c1ccccc1Br)Nc1ccc(S(=O)(=O)Nc2ccccn2)cc1 [U″],210%
15,O=C(/C=C/c1cccc(O)c1)Nc1ccc(S(=O)(=O)Nc2nncs2)cc1 [V′′′],160%
16,COc1ccccc1/C=C/C(=O)Nc1ccc(S(=O)(=O)NC(=N)/C=C(\C)O)cc1 [W′′′],140%

# Same assay, conditions: Rattus norvegicus, Neuron, compound concentration 5 μM; midbrain culture; read-out: DA uptake % of control
row,SMILES,activity at 5 µM
1,O=C(/C=C/c1cccc(O)c1)Nc1ccc(S(=O)(=O)Nc2ccccn2)cc1 [M′′′],170%
2,O=C(Nc1ccc(S(=O)(=O)Nc2nccs2)cc1)c1ccc(Br)cc1 [P],160%
3,COc1ccccc1/C=C/C(=O)Nc1ccc(S(=O)(=O)Nc2ccccn2)cc1 [P″],200%
4,O=C(CCN1C(=O)S/C(=C\c2ccccc2)C1=O)Nc1ccc(S(=O)(=O)Nc2nccs2)cc1 [Q′],180%
5,O=C(/C=C/c1ccccc1)Nc1ccc(S(=O)(=O)Nc2nnc[nH]2)cc1 [Q′′′],170%
6,CCc1ccccc1/C=C\C(=O)Nc1ccc(S(=O)(=O)Nc2nc[nH]n2)cc1 [R″],290%
7,CCOc1cccc(/C=C/C(=O)Nc2ccc(S(=O)(=O)Nc3nccs3)cc2)c1 [S′′′′],170%
8,O=C(/C=C/c1ccc([N+](=O)[O-])cc1)Nc1ccc(S(=O)(=O)Nc2nccs2)cc1 [T′′′′],180%
9,CCc1nnc(NS(=O)(=O)c2ccc(NC(=O)/C=C/c3ccc(F)cc3)cc2)s1 [W],180%
10,C/C(O)=C\C(=N)NS(=O)(=O)c1ccc(NC(=O)/C=C/c2ccccc2)cc1 [X′′′],140%

# Same assay, conditions: Rattus norvegicus, Neuron, compound concentration 10 μM; midbrain culture; read-out: DA uptake % of control
row,SMILES,activity at 10 µM
1,COc1cccc(/C=C/C(=O)Nc2ccc(S(=O)(=O)Nc3ccccn3)cc2)c1 [N′′′],180%
2,O=C(/C=C/c1ccccc1O)Nc1ccc(S(=O)(=O)Nc2ccccn2)cc1 [O′′′],150%
3,O=C(Nc1ccc(S(=O)(=O)Nc2nccs2)cc1)/C(F)=C/c1ccccc1 [O′′′′],200%
4,O=C(/C=C/c1ccccc1O)Nc1ccc(S(=O)(=O)Nc2nccs2)cc1 [P′′′],150%
5,COc1ccc(/C=C/C(=O)Nc2ccc(S(=O)(=O)Nc3nnc[nH]3)cc2)cc1 [S′′′],190%
6,Cc1cccc(C(=O)Nc2ccc(S(=O)(=O)Nc3nccs3)cc2)c1 [T],140%
7,CCc1nnc(NS(=O)(=O)c2ccc(NC(=O)/C=C/c3ccc(OC)cc3OC)cc2)s1 [U],150%
8,O=C(/C=C/c1ccccc1Cl)Nc1ccc(S(=O)(=O)Nc2nncs2)cc1 [U′′′],180%
9,O=C(Nc1ccc(S(=O)(=O)Nc2nccs2)cc1)c1cccc(C(F)(F)F)c1 [V],220%
10,CCCCCCCC(=O)Nc1ccc(S(=O)(=O)Nc2nccs2)cc1 [W′],200%

# Same assay, conditions: Rattus norvegicus, Neuron, compound concentration 20 μM; midbrain culture; read-out: DA uptake % of control
row,SMILES,activity at 20 µM
1,O=C(/C=C/c1ccoc1)Nc1ccc(S(=O)(=O)Nc2nccs2)cc1 [N″],240%
2,O=C(/C=C/c1ccc(F)cc1)Nc1ccc(S(=O)(=O)Nc2nccs2)cc1 [O],240%
3,Cc1ccc(C(=O)Nc2ccc(S(=O)(=O)Nc3nccs3)cc2)cc1 [R],140%
4,CCc1nnc(NS(=O)(=O)c2ccc(NC(=O)c3ccc(Cl)cc3)cc2)s1 [X],140%

# Same assay, conditions: Rattus norvegicus, Neuron, compound concentration 40 μM; midbrain culture; read-out: DA uptake % of control
row,SMILES,activity at 40 µM
1,O=C(/C=C/c1ccccc1)Nc1ccc(S(=O)(=O)Nc2nncs2)cc1 [T′′′],150%
2,O=C(Nc1ccc(S(=O)(=O)Nc2nccs2)cc1)c1cncc(Br)c1 [V′],130%
3,COc1ccc(/C=C/C(=O)Nc2ccc(S(=O)(=O)Nc3cc(C)nc(C)n3)cc2)cc1OC [Y],160%

# Same assay, conditions: Rattus norvegicus, Neuron; midbrain culture, FIG. 36; read-out: half-maximal effective concentration (EC50) for DA uptake stimulation
row,SMILES,EC50
1,O=C(/C=C/c1ccc(Br)cc1)Nc1ccc(S(=O)(=O)Nc2nc[nH]n2)cc1 [X′],~0.2 µM
2,O=C(Nc1ccc(S(=O)(=O)Nc2nc[nH]n2)cc1)c1ccc2ccccc2c1 [Y′],~0.2 µM
